Assay results as given in patent US20230407098A1, “METHOD FOR EVALUATING CYSTINE UPTAKE ABILITY OF CELL, KIT FOR EVALUATING CYSTINE UPTAKE ABILITY OF CELL, METHOD FOR DETERMINING SELENOCYSTEINE, AND KIT FOR DETERMINING SELENOCYSTEINE” (DOJINDO LABORATORIES, priority 2021, published 2023).

Assays:
[1] = target: T1, cystine transporter (Homo sapiens, UniProt Q9UPY5); assay: Inhibition of selenocystine uptake by cystine transporter inhibitor; assay type: cell-based; conditions: HeLa cells, with cystine transporter inhibitor (sulfasalazine or erastin); FIG. 3
T1 construct: endogenous in cells; host or cells: HeLa cells
T1 sequence (Q9UPY5 1-501): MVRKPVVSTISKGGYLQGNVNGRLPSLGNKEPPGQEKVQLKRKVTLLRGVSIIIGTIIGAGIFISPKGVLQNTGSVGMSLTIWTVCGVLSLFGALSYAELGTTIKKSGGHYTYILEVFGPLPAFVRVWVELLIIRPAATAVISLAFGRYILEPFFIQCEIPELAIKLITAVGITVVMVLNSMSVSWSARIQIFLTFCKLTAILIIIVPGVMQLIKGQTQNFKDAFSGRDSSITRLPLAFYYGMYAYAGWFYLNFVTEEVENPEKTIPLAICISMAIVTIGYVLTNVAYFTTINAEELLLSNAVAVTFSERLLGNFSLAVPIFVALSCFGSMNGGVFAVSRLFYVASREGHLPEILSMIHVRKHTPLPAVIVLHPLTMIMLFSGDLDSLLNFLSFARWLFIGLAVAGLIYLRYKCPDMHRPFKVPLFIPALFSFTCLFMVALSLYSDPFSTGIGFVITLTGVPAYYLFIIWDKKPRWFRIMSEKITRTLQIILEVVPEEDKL
T1 sequence (P08195 1-529 partner): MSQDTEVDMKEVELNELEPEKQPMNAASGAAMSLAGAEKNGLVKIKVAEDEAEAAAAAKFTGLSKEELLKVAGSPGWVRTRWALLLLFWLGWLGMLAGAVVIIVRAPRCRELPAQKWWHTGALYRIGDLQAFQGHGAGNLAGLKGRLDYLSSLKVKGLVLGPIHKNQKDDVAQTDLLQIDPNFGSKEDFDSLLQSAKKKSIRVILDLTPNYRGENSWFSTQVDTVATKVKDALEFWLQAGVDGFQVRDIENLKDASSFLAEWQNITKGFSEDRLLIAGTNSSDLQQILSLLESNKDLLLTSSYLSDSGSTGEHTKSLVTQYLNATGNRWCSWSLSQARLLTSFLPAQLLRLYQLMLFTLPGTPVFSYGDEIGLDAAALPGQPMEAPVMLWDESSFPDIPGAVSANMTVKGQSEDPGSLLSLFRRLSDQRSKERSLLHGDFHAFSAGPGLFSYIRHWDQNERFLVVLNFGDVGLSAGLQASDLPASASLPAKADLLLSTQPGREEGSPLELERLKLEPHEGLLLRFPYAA
Experimental: DMEM (cystine-free) containing a cystine transporter inhibitor (sulfasalazine or erastin) was added to HeLa cells, and the cells were incubated in the CO2 incubator (37° C.) for 5 minutes. DMEM (cystine-free) containing 200 μM selenocystine was then added, and the cells were incubated in the CO2 incubator (37° C.) for 30 minutes. After removing the supernatant, the cells were washed with PBS three times and lysed with methanol. Then, 100 mM MES at a pH of 6 containing 10 μM FOdA and 200 μM TCEP was added, and the cells were incubated at 37° C. for 30 minutes. The fluorescence intensity of each solution was then measured with a plate reader (Infinite(R) 200 PRO, excitation wavelength: 485 nm, fluorescence wavelength: 535 nm).

[2] = tested on: HeLa cells; assay: Ability to take selenocystine into cells (FOdA/TCEP fluorescence measurement); assay type: cell-based, human; conditions: selenocystine at concentrations in cystine-free DMEM, 30 minutes, FIG. 2
Experimental: DMEM (cystine-free) was added to HeLa cells, and the cells were incubated in a CO2 incubator (37° C.) for 5 minutes. After the removal of the supernatant, DMEM (cystine-free) containing selenocystine at concentrations was added, and the cells were incubated in the CO 2 incubator (37° C.) for 30 minutes. After removing the supernatant, the cells were washed with PBS three times and then lysed with methanol. Then, 100 mM MES at a pH of 6 containing 10 μM FOdA and 200 μM TCEP was added, and the mixture was incubated at 37° C. for 30 minutes. The fluorescence intensity of each solution was then measured with a plate reader (Infinite(R) 200 PRO, excitation wavelength: 485 nm, fluorescence wavelength: 535 nm).

## N[C@@H](C[Se][Se]C[C@H](N)C(=O)O)C(=O)O [selenocystine]
[1]
  route of selenocystine uptake: taken through cystine transporter
[2]
  fluorescence intensity (selenocystine taken up by the cells): increased depending on the concentration of selenocystine
